This note sets out measurements from ChEMBL document CHEMBL5236564, “An overview of the development of EED inhibitors to disable the PRC2 function” (RSC Med Chem, 2022).

Bridge positions count the residues as written; N and C are the ends. Square brackets hold non-standard residues; d marks the D form. Peptide text beside a SMILES is read from it. ξ: configuration not given here. S5 = C=CCCC[C@](C)(N)C(=O)O; ξIle = CC[C@H](C)C(N)C(=O)O

Data set [1] can be described thus: Oral bioavailability in mouse. It is filed as ADME, organism-based. The conditions noted are these: in vivo.
Data set [2] can be described thus: Inhibition of human N- terminal 6 his sumo-tagged EED (81 to 441 residues)/EZH2(39 to 63 residues) (unknown origin) interaction expressed in Escherichia coli BL21(DE3) incubated for 2 hrs by fluorescence polarization based competitive assay. A general note: Fluorescence polarisation rises when a labelled molecule tumbles more slowly, as on binding a larger partner.

Data set [3] in a line: Inhibition of EED/EZH2 (unknown origin) interaction by fluorescence polarization assay. Also noted: species or system Homo sapiens.
Data set [4] deals with KARPAS-422. The experiment in a line: Synergistic cell viability against human KARPAS-422 cells by measuring combination index score at 0.3 to 3 uM measured after 7 days in presence of GSK126. The conditions noted are these: dose 0.3-3 µM; time 7 day. It is filed as functional.
The nature of data set [5]: Synergistic cell viability against human MLL-AF9 cells by measuring combination index score at 0.3 to 3 uM measured after 7 days in presence of GSK126. It is filed as functional. To be noted: dose 0.3-3 µM; time 7 day.
Data set [6] addresses T1, Polycomb protein EED (Homo sapiens, UniProt O75530). The experiment in a line: Binding affinity to C-terminal histidine tagged EED (unknown origin) expressed in Escherichia coli BL21(DE3) incubated for 15 mins by fluorescence polarization analysis.
Target sequence in this assay (O75530 whole entry): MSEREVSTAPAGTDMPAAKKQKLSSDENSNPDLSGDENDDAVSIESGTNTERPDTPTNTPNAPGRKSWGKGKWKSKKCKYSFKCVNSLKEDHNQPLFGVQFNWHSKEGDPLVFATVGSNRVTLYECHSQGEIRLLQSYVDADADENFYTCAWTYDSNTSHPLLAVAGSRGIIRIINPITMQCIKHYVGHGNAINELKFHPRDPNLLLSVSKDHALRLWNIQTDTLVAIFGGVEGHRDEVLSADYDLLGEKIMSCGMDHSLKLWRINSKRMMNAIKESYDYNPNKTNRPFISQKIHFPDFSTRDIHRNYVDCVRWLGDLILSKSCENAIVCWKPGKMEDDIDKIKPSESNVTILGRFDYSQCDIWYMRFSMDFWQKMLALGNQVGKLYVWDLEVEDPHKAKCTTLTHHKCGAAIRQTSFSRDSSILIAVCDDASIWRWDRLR
The test system of data set [7] is KARPAS-422. The data set can be described thus: Antitumor activity against human KARPAS-422 cells xenografted in mouse at 40 mg/kg via oral gavage and mesured after 32 days by caliper method relative to control. It is filed as functional. To be noted: KARPAS-422, 768 h, time 32 day, read-out: TGI.
The nature of data set [8]: Inhibition of PRC2 (unknown origin) using H3K27me0 as peptide substrate by LC-MS based analysis. Also noted: species or system Homo sapiens.
The subject of data set [9] is KARPAS-422. The experiment in a line: Synergistic growth inhibition against human KARPAS-422 cells assessed as reduction in H3K27me3 level by measuring synergistic score upto 10 uM measured after 4 days in presence of EI1. It is filed as functional. To be noted: time 4 day.
For data set [10], the target named is EZH2/SUZ12/EED complex (Homo sapiens) (UniProt Q15910+O75530+Q15022).
Description: Stabilization of PRC2 complex of EZH2-EED-SUZ12 (unknown origin) assessed as thermal stability by measuring increase in melting temperature by thermal shift assay
The test system of data set [11] is KARPAS-422. The data set can be described thus: Synergistic growth inhibition against human KARPAS-422 cells assessed as reduction in cell proliferation by measuring synergistic score at upto 10 uM measured after 6 days in presence of EI1. In kind it is functional. The conditions noted are these: time 6 day.
For a further data set, the target named is EZH2/SUZ12/EED complex (Homo sapiens, UniProt O75530+Q15022+Q15910). The experiment in a line: Binding affinity to PRC2 complex of EZH2-EED-SUZ12 (unknown origin) assessed as dissociation constant by isothermal titration calorimetry method. It is filed as protein-complex assay.
In data set [12] the target is T1, Polycomb protein EED. The experiment in a line: Binding affinity to his tagged EED (1 to 441 residues) (unknown origin) incubated for 20 mins in presence of biotinylated H3K27me3 peptide (19 to 33 residues) by alphascreen competitive binding assay. (In general: Bead proximity is the source of the signal in Alpha formats.)
Target sequence in this assay (O75530 whole entry): as above
Data set [13] has as its target T1, Polycomb protein EED. The data set can be described thus: Stabilization of EED (unknown origin) assessed as change in melting temperature by thermal shift assay. To be noted: tested as the 2H-labelled form.
Target sequence in this assay (O75530 2-441 limits assumed): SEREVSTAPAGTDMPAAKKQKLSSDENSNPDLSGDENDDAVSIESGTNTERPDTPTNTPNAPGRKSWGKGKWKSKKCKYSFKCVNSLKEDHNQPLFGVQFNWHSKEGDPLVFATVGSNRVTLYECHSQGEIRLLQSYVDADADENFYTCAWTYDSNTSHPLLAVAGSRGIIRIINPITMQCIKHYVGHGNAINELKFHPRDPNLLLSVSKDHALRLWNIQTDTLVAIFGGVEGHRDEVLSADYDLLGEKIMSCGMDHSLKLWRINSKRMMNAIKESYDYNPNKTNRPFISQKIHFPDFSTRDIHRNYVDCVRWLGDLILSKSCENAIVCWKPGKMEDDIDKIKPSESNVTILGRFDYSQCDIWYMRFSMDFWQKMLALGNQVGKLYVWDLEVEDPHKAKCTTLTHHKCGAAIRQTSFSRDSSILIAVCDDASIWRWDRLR
The subject of data set [14] is KARPAS-422. The experiment in a line: Antitumor activity against human KARPAS-422 cells xenografted in mouse assessed as tumor growth inhibition at 100 mg/kg, po administered twice daily for 36 days relative to control. In kind it is functional. To be noted: KARPAS-422, 864 h, time 36 day, read-out: TGI. (A xenograft is tissue or cells of one species grown in another, often human tumour cells in immunodeficient mice.)

A further data set concerns Pfeiffer. The data set can be described thus: Antitumor activity against human Pfeiffer cells xenografted in mouse assessed as tumor growth inhibition at 100 mg/kg, po administered twice daily for 36 days relative to control. In kind it is functional. The conditions noted are these: 864 h, time 36 day, read-out: TGI.
Data set [15] deals with T1, Polycomb protein EED. The experiment in a line: Displacement of H3K27me3 from EED (unknown origin) by competitive binding assay.
Target sequence in this assay (O75530 whole entry): as the sequence (O75530 whole entry) above

Chain of EZH2/SUZ12/EED complex (Q15910 whole entry, the tested form may be a part): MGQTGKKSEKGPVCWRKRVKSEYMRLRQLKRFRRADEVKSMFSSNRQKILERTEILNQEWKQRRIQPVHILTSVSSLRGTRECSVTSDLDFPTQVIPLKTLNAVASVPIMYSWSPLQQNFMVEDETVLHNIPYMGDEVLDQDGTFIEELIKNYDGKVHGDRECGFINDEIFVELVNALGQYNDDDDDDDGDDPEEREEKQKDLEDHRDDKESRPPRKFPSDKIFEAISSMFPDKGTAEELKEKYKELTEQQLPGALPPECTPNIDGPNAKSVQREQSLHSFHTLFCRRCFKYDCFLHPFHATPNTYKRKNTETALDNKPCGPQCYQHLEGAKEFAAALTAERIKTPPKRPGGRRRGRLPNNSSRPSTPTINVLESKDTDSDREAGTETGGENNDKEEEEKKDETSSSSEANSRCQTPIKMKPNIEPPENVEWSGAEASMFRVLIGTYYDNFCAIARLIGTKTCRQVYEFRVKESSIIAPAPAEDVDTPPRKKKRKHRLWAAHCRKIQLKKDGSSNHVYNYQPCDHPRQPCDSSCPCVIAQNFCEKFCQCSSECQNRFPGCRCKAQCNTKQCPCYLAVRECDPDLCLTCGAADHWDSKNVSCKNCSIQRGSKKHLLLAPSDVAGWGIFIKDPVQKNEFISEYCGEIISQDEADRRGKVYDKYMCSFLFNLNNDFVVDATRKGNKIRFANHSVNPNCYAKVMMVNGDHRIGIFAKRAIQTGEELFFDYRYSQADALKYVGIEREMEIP
Chain of EZH2/SUZ12/EED complex (O75530 whole entry, the tested form may be a part): as the sequence (O75530 whole entry) above
Chain of EZH2/SUZ12/EED complex (Q15022 whole entry, the tested form may be a part): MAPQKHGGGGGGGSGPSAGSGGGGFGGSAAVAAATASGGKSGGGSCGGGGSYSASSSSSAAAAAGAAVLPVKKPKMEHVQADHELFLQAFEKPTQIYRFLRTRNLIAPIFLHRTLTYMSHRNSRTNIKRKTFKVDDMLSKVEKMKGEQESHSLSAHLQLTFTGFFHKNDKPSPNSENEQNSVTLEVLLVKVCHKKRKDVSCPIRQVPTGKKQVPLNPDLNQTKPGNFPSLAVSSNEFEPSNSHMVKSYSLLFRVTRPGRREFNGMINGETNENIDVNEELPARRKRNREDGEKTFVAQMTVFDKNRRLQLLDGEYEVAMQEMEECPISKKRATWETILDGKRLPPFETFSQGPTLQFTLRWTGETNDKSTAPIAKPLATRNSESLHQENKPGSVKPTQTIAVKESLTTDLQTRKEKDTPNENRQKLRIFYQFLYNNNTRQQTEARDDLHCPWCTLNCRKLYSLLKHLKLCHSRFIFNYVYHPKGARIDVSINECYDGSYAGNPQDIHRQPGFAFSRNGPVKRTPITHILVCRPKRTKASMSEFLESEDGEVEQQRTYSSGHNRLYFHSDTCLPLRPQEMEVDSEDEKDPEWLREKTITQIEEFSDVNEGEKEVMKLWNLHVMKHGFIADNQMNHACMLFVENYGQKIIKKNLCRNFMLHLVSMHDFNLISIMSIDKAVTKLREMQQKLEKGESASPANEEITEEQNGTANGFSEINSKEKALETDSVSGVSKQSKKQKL
Chain of EZH2/SUZ12/EED complex (Homo sapiens) (O75530 2-441 partner limits assumed): as the sequence (O75530 2-441 limits assumed) above
Chain of EZH2/SUZ12/EED complex (Homo sapiens) (Q15022 whole entry partner): as the sequence (Q15022 whole entry, the tested form may be a part) above
Chain of EZH2/SUZ12/EED complex (Homo sapiens) (Q15910 whole entry): as the sequence (Q15910 whole entry, the tested form may be a part) above

Broadly, the bioavailability is the share of a dose that reaches the circulation, judged against a reference dose that is usually intravenous. Low values mean little systemic uptake, high ones much systemic uptake. As for `CC[C@@H](C)n1cc(C)c2c(C(=O)NCc3c(C)cc(C)[nH]c3=O)cc(-c3ccc(N4CCNCC4)nc3)cc21`, the bioavailability in [1] is 0.2%.
For orientation: IC50 means the concentration needed to halve the response being measured. Take `Cc1ccc(C(C2=C(O)CC(C)(C)CC2=O)C2C(=O)CC(C)(C)CC2=O)s1` (stereo not given): the IC50 in [2] worked out at 63.9 µM.
In turn, `CCCCC1C(=O)N(c2ccccc2)N(c2ccc(O)cc2)C1=O` (stereo not given) [OXYPHENBUTAZONE ANHYDROUS] returned an IC50 in [3] of 229 µM.
Broadly, the Kd is the free concentration of one partner at which half of the binding sites on the other are occupied at equilibrium, for simple one-to-one binding. In the case of `CC[C@H](C)C1NC(=O)[C@H](CCCCN)NC(=O)[C@@](C)(NC(=O)[C@H](CCCNC(=N)N)NC(=O)[C@H](CC(N)=O)NC(=O)[C@H](CO)NC(=O)[C@H](CO)NC(=O)[C@H](Cc2ccccc2)NC(C)=O)CCC/C=C/CCC[C@@](C)(C(=O)N[C@@H](CCCNC(=N)N)C(=O)N[C@H](C(=O)N[C@@H](CCC(N)=O)C(=O)N[C@H](C(=O)N[C@@H](CC(C)C)C(=O)N[C@@H](CC(N)=O)C(=O)N[C@@H](CCC(N)=O)C(=O)N[C@@H](CCC(=O)O)C(=O)N[C@@H](Cc2c[nH]c3ccccc23)C(=O)N[C@@H](CCCCN)C(=O)N[C@@H](CCC(N)=O)C(=O)N[C@@H](CCCNC(=N)N)C(=O)N[C@@H](CCCNC(=N)N)C(=O)N[C@H](C(=O)N[C@@H](CCC(N)=O)C(=O)N2CCC[C@H]2C(=O)N[C@H](C(=O)O)C(C)C)[C@@H](C)CC)[C@@H](C)CC)[C@@H](C)O)NC(=O)[C@H](CC(C)C)NC1=O` (stereo not given in full) (Ac-FSSNR[S5]K[ξIle]L[S5]RTQILNQEWKQRRIQPV-OH; staple (E) 6-10), the results for the Activity (with KARPAS-422 [4]; in [5]) were 0.74 and 0.11, respectively. The compound further returned a Kd on Polycomb protein EED [6] of 0.00032 µM.
Usually ΔTm stands for the change in melting temperature against a reference sample. As for `CS(=O)(=O)c1ccc(-c2cnc(NCc3ccco3)n3cnnc23)cc1`, the inhibition in vivo at 40 mg/kg in the data set with KARPAS-422 [7] stood at 100%. In [8], this compound came in with an IC50 of 0.0234 µM. Moreover, the Activity in the data set on KARPAS-422 [9] stood at 2.17; in the data set on KARPAS-422 [11] it was 1.67. Further, in [10], the ΔTm is more than 8 °C. Besides, the Kd at EZH2/SUZ12/EED complex is 0.082 µM.
`Cc1sc(NC(=O)CCCCC(=O)Nc2sc(C)c(C)c2C(N)=O)c(C(N)=O)c1C`: in data set [2], the IC50 was 54.9 µM.
`CN1CCc2cccc3c2[C@H]1Cc1ccc(O)c(O)c1-3` [APOMORPHINE] showed an IC50 in data set [3] of 15.5 µM.
Same read-out and setting: the same measure for `COC(=O)C1=C(C)NC(C)=C(C(=O)OC)C1c1ccccc1[N+](=O)[O-]` [NIFEDIPINE]: 343 µM.
With `Cc1cc(C)n(-c2cc(N3CCCc4ccccc43)ccc2[N+](=O)[O-])n1`, on Polycomb protein EED [12], the half-maximal inhibitory concentration (IC50) came out at 8.76 µM.
Consider `Cc1ncccc1-c1cnc(NCc2c(F)ccc3c2CCO3)[nH]c1=O`, for which, on Polycomb protein EED [13], the shift in melting temperature (ΔTm) came to 6 °C.
Take `[2H]C([2H])(Nc1ncc(-c2cccnc2C)c(=O)[nH]1)c1c(F)ccc2c1CCO2`: the inhibition in vivo at 100 mg/kg in the data set on KARPAS-422 [14] came to 85%; in the data set with Pfeiffer it was 96%. On Polycomb protein EED [15], this compound returned an IC50 of 0.0045 µM.
